Columns and labels:
[1] = Thermal stability by thermogravimetric analyzer (5% weight loss temperature); type: physicochemical
Text: Measurement of Thermal Stability
If a photoacid generator is thermally stable in a photoresist preparation process, a very good effect in terms of stability can be expected.

[2] = Measurement of solubility of photoacid generators in photoresist solvents; conditions: for Solubility PGMEA: solvent PGMEA; for Solubility Cyclohexane: solvent cyclohexane

Structure (SMILES): O=C1c2cccc3c(CC4CCCCC4)ccc(c23)C(=O)N1OS(=O)(=O)C(F)(F)F [Compound 5]
- Temperature at which 5% weight loss occurred [1]: 252 °C
- Solubility PGMEA [2]: 3.1 w/v; %
- Solubility Cyclohexane [2]: 7.8 w/v; %

Structure (SMILES): O=C1c2cccc3cccc(c23)C(=O)N1OS(=O)(=O)C(F)(F)F [Formula V, reference compound]
- Temperature at which 5% weight loss occurred [1]: 223 °C

Structure (SMILES): CC(C)(C)c1cc2c3c(ccc(CC4CCCCC4)c3c1)C(=O)N(OS(=O)(=O)C(F)(F)F)C2=O [Compound 19]
- Temperature at which 5% weight loss occurred [1]: 236 °C
- Solubility PGMEA [2]: 11.0 w/v; %
- Solubility Cyclohexane [2]: 31.2 w/v; %

Structure (SMILES): O=C1c2cccc3c(CC4CC4)ccc(c23)C(=O)N1OS(=O)(=O)C(F)(F)F [Compound 1, 4-cyclopropanemethyl-naphthalimide trifluoromethane sulfonate]
- Temperature at which 5% weight loss occurred [1]: 242 °C
- Solubility PGMEA [2]: 9.2 w/v; %
- Solubility Cyclohexane [2]: 26.1 w/v; %

Structure (SMILES): O=C1c2cccc3c(CCCC4CCCC4)ccc(c23)C(=O)N1OS(=O)(=O)C(F)(F)F [Compound 9]
- Temperature at which 5% weight loss occurred [1]: 258 °C
- Solubility PGMEA [2]: 6.3 w/v; %
- Solubility Cyclohexane [2]: 21.3 w/v; %

Reference: patent publication US12624007B2, “Naphthalimide sulfonate derivative, and photoacid generator and photoresist composition which comprise same” (SAMYANG CORPORATION, priority 2020, dated 2026)
